Source: patent US20130261173A1, “CYCLODEXTRIN-BASED POLYMERS FOR THERAPEUTIC DELIVERY” (CERULEAN PHARMA INC., priority 2009, published 2013)
Values joined by “and” are separate entries in the source; they are usually repeats but may differ in a detail not shown here. Equal entries are not always repeated. Where two headings read alike, the source gives them in different places.

Columns and labels:
[1] = Tolerability in the murine melanoma model (body weight); type: in vivo, male C57BL/6 mice
Method: The treatments were administered IV into the tail vein at a dose volume of 10 mL/kg, beginning on post-implantation day 5, when the mean tumor volume was ca. 60 mm^3. Animals were monitored for any morbidity and adverse effect three times a week. In addition, body weight and tumor volume were also measured three times a week.
Tolerability was determined by changes in body weight, expressed as a percent of the initial body weight on post-implantation day 5. Health monitoring was conducted three times a week to evaluate lethargy, tremors, hypothermia, ataxia, hind limb paralysis etc. The criteria at which a mouse was removed from the study were >20% body weight loss or severe morbidity or hind limb paralysis.

B16.F10 cells [2] = test: Efficacy in a murine melanoma model (subcutaneous B16.F10 tumors); type: in vivo, male C57BL/6 mice
Method: Animals were monitored for any morbidity and adverse effect three times a week.
Tumor volume was calculated with a (width×width×length)/2 mm^3 formula.

B16.F10 cells [3] = test: CellTiter-Glo Luminescent Cell Viability Assay (cytotoxicity); type: cell-based, murine
Method: To measure the cytotoxic effect of CDP-linker-docetaxel compounds, the CellTiter-Glo Luminescent Cell Viability Assay (CTG) was used. […] B16.F10 cells, grown to 85-90% confluency in 150 cm2 flasks (passage <30), were resuspended in media (MEM-alpha, 10% HI-FBS, 1×antibiotic-antimycotic solution) and added to 96-well opaque-clear bottom plates at a concentration of 1500 cells/well in 200 μL/well. The cells were incubated at 37° C. with 5% CO2 for 24 hours. The following day, serial dilutions of 2× concentrated particles and 2× concentrated free drug were made in 12-well reservoirs with media to specified concentrations. The media in the plates was replaced with […], of fresh media and 100 μL of the corresponding serially diluted drug. Three sets of plates were prepared with duplicate treatments. Following 24, 48 and 72 hours of incubation at 37° C. with 5% CO2, the media in the plates was replaced with 100 μL of fresh media and 100 μL of CTG solution, and then incubated for 5 minutes on a plate shaker at room temperature set to 450 rpm and allowed to rest for 15 minutes. Viable cells were measured by luminescence using a microtiter plate reader. The data was plotted as % viability vs. concentration and standardized to untreated cells.

[4] = 15 mg/kg IV, three injections over 2 weeks (twice per week)
[5] = 15 mg/kg IV, weekly schedule for 3 injections
[6] = 30 mg/kg IV, biweekly schedule for 2 injections
[7] = 30 mg/kg IV, weekly schedule for 3 injections (study of 1.4, 2.3, 4.2, 5.2)
[8] = 30 mg/kg IV, weekly schedule for 3 injections (study of 1.5)
[9] = 15 mg/kg IV, three injections over 2 weeks (twice per week), listed as free docetaxel

Compound: CC(=O)O[C@@]12CO[C@@H]1C[C@H](O)[C@@]1(C)C(=O)[C@H](O)C3=C(C)[C@@H](OC(=O)[C@H](O)[C@@H](NC(=O)OC(C)(C)C)c4ccccc4)C[C@@](O)([C@@H](OC(=O)c4ccccc4)[C@H]21)C3(C)C [Free docetaxel, docetaxel, reference compound]
- Maximum body weight loss (%) [1, 4]: 3%
- Maximum body weight loss (%) [1, 5]: 0%
- Maximum body weight loss (%) [1, 6]: 5%
- Maximum body weight loss (%) [1, 7]: 8%
- Maximum body weight loss (%) [1, 8]: 12%
- Tumor growth delay (TGD) (B16.F10 cells [2]; [4]): 15 days
- Tumor growth inhibition (% TGI) (B16.F10 cells [2]; [4]): 97%
- increase in TGD (B16.F10 cells [2]; [4]): 79%
- Tumor growth inhibition (% TGI) (B16.F10 cells [2]; [9]): 97%
- day the mean tumor volume endpoint (≧3000 mm^3) was reached (B16.F10 cells [2]; [9]): 34 days and 35 days
- survival (B16.F10 cells [2]; 15 mg/kg IV, three injections over 2 weeks, day 33): 50%
- survival (B16.F10 cells [2]; 15 mg/kg IV, three injections over 2 weeks, day 40): 0%
- Tumor growth delay (TGD) (B16.F10 cells [2]; [5]): 7 days
- Tumor growth inhibition (% TGI) (B16.F10 cells [2]; [5]): 68%
- day the mean tumor volume endpoint (≧3000 mm^3) was reached (B16.F10 cells [2]; [5]): 26 days
- increase in TGD (B16.F10 cells [2]; [5]): 37%
- Tumor growth inhibition (% TGI) (B16.F10 cells [2]; 15 mg/kg IV, weekly schedule for 3 injections, listed as free docetaxel): 68%
- survival (B16.F10 cells [2]; 30 mg/kg IV, biweekly for 2 injections, day 24): 50%
- survival (B16.F10 cells [2]; 30 mg/kg IV, biweekly for 2 injections, day 31): 0%
- Tumor growth delay (TGD) (B16.F10 cells [2]; [6]): 7 days
- Tumor growth inhibition (% TGI) (B16.F10 cells [2]; [6]): 73%
- day the mean tumor volume endpoint (≧3000 mm^3) was reached (B16.F10 cells [2]; [6]): 26 days
- Tumor growth inhibition (% TGI) (B16.F10 cells [2]; 30 mg/kg IV, biweekly schedule for 2 injections, listed as free docetaxel): 73%
- survival (B16.F10 cells [2]; 30 mg/kg IV, weekly for 3 injections (study of 1.4, 2.3, 5.2), day 29): 50%
- survival (B16.F10 cells [2]; 30 mg/kg IV, weekly for 3 injections (study of 1.4, 2.3, 5.2), day 38): 0%
- survival (B16.F10 cells [2]; 30 mg/kg IV, weekly for 3 injections (study of 1.5), day 40): 50%
- survival (B16.F10 cells [2]; 30 mg/kg IV, weekly for 3 injections (study of 1.5), day 45): 0%
- Tumor growth delay (TGD) (B16.F10 cells [2]; [7]): 12 days
- day the mean tumor volume endpoint (≧3000 mm^3) was reached (B16.F10 cells [2]; [7]): 31 days
- increase in TGD (B16.F10 cells [2]; [7]): 63%
- Tumor growth delay (TGD) (B16.F10 cells [2]; [8]): 21 days
- day the mean tumor volume endpoint (≧3000 mm^3) was reached (B16.F10 cells [2]; [8]): 41 days
- increase in TGD (B16.F10 cells [2]; [8]): 105%
- IC50 (B16.F10 cells [3]; Mus musculus, B16.F10 cells, 72 hours after treatment): 0.2 to 2 nM

Compound: CDP-2′-alanine glycolate-docetaxel [CDP-Ala Gly-DTX formulation]
- IC50 (B16.F10 cells [3]): 0.4 to 2 nM

Compound: CDP-2′-aminoethoxyethoxy-Docetaxel [CDP-aminoethoxyethoxy-DTX formulation]
- Maximum body weight loss (%) [1, 5]: 7%
- Maximum body weight loss (%) [1, 7]: 23%

Compound: CDP-2′-glycine-docetaxel [CDP-Gly-DTX formulation]
- IC50 (B16.F10 cells [3]; B16.F10 cells, 72 hours after treatment): 1.2 to 3.7 nM

Compound: CDP-2′-hexanoate-docetaxel [CDP-Hex-DTX formulation]
- Tumor growth delay (TGD) (B16.F10 cells [2]; mouse, in vivo): 10 days
- Tumor growth inhibition (% TGI) (B16.F10 cells [2]; mouse, in vivo): 66%
- increase in TGD (B16.F10 cells [2]; mouse, in vivo): 53%
- IC50 (B16.F10 cells [3]): 325 to 440 nM

Compound: CDP-dithiolethyloxy-carbonate-docetaxel [CDP-ethane-S—S-ethane-DTX formulation]
- Maximum body weight loss (%) [1, 5]: 0%
- Maximum body weight loss (%) [1, 7]: 0%
- day the mean tumor volume endpoint (≧3000 mm^3) was reached (B16.F10 cells [2]; mouse, in vivo): 21 days and 24 days
- IC50 (B16.F10 cells [3]): 23 nM
